These results are taken from PubChem BioAssay AID330 (DTP/NCI, 2004).

Several values for one entry are separate records, joined by “and”; a condition that tells them apart may be missing. Equal values may be shown once. Toxic doses and inconclusive results are not listed.

For the test, the system named is P388 leukemia ip, CD2F1 mice, survival T/C. Briefly: NCI In Vivo Anticancer Drug Screen. Data for tumor model P388 Leukemia (intraperitoneal) in CD2F1 (CDF1) mice. Particulars: endpoint: median survival time, higher = longer survival. Put shortly:
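Mice carrying the transplanted tumor received test compound or vehicle. Survival was recorded in each group, and the value is the treated-group measurement divided by that of the vehicle-treated control group.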

The mark [1] stands for this setting: dose: 60.0 mg/kg/injection, schedule: Q01DX005 (ip), vehicle: saline with Tween-80.
[2] abbreviates: dose: 120.0 mg/kg/injection, schedule: Q01DX005 (ip), vehicle: saline with Tween-80.
The mark [3] stands for this setting: dose: 240.0 mg/kg/injection, schedule: Q01DX005 (ip), vehicle: saline with Tween-80.
[4] abbreviates: dose: 100.0 mg/kg/injection, schedule: Q01DX009 (ip), vehicle: saline with Tween-80.
Where [5] appears, read: dose: 50.0 mg/kg/injection, schedule: Q01DX009 (ip), vehicle: saline with Tween-80.
[6] abbreviates: dose: 200.0 mg/kg/injection, schedule: Q01DX009 (ip), vehicle: saline with Tween-80.
Setting [7] is: dose: 12.5 mg/kg/injection, schedule: Q01DX009 (ip), vehicle: saline.
The mark [8] stands for this setting: dose: 25.0 mg/kg/injection, schedule: Q01DX009 (ip), vehicle: saline with Tween-80.
Where [9] appears, read: dose: 50.0 mg/kg/injection, schedule: Q01DX009 (ip), vehicle: saline.
[10] abbreviates: dose: 50.0 mg/kg/injection, schedule: Q01DX005 (ip), vehicle: saline.
Where [11] appears, read: dose: 100.0 mg/kg/injection, schedule: Q01DX005 (ip), vehicle: saline.
The mark [12] stands for this setting: dose: 200.0 mg/kg/injection, schedule: Q01DX005 (ip), vehicle: saline.

In the case of `C[C@]12CC[C@H]3[C@@H](C[C@H]4OC[C@@]35CC[C@H](O)C[C@]45Br)[C@@H]1CC[C@@H]2O`, the T/C reads like this: (dose: 50.0 mg/kg/injection, schedule: Q01DX005 (ip), vehicle: Klucel (hydroxypropylcellulose) (HPC)) 97 % of control; (dose: 100.0 mg/kg/injection, schedule: Q01DX005 (ip), vehicle: Klucel (hydroxypropylcellulose) (HPC)) 97 % of control; (dose: 200.0 mg/kg/injection, schedule: Q01DX005 (ip), vehicle: Klucel (hydroxypropylcellulose) (HPC)) 96 % of control.
Regarding `Nc1nnc2nc(CC(=O)c3cccc([N+](=O)[O-])c3)c(CC(=O)c3cccc([N+](=O)[O-])c3)nn12`, the T/C is, setting by setting: under setting [1], 96 % of control; under setting [2], 100 % of control; under setting [3], 100 % of control.
As to `O=C(O)C1CC[N-]CC1.O=C(O)C1CC[N-]CC1.O=C(O)C1CC[N-]CC1.O=C(O)C1CC[N-]CC1.[Cl][Rh][Cl]`, the T/C was 100 % of control (dose: 67.0 mg/kg/injection, schedule: Q01DX009 (ip), vehicle: saline with Tween-80); 109 % of control under setting [4]; 113 % of control (dose: 150.0 mg/kg/injection, schedule: Q01DX009 (ip), vehicle: saline with Tween-80).
Consider `C=CCn1c(-c2ccccc2Cl)n[nH]c1=S`, for which the T/C was 102 % of control under setting [5], 95 % of control under setting [4] and 99 % of control under setting [6].
Turning to `O=S1(=O)CC(N2CCCCC2)C=C(c2ccccc2)O1` (configuration not stated), the T/C was 103 % of control under setting [5], 98 % of control under setting [4] and 95 % of control under setting [6].
As to `C=CC[n+]1ccc(-c2cc[n+](CC=C)cc2)cc1`, the T/C reads like this: (dose: 6.25 mg/kg/injection, schedule: Q01DX009 (ip), vehicle: saline) 115 % of control; under setting [7], 112 % of control and 117 % of control.
For the compound `CS(=O)(=O)OCCN(CCOS(C)(=O)=O)c1ccc(C(=O)O)cc1`, the T/C is 159 % of control under setting [8]; 168 % of control and 190 % of control under setting [5]; 175 % of control under setting [4]; 159 % of control (dose: 132.0 mg/kg/injection, schedule: Q04DX003 (ip), vehicle: saline with Tween-80).
Turning to `CCCCOC(=O)CNCC(=O)OCCCC`, the T/C under setting [1] was 100 % of control, the T/C under setting [2] is 101 % of control and the T/C under setting [3] was 104 % of control.
With `Cc1cccnc1I`, the T/C is 98 % of control under setting [1], 99 % of control under setting [2] and 101 % of control under setting [3].
Take `O=C1NC(Cc2ccccc2)C(=O)N2CCCC12` (configuration not stated): the T/C is, setting by setting: under setting [9], 100 % of control; (dose: 100.0 mg/kg/injection, schedule: Q01DX009 (ip), vehicle: saline) 96 % of control; (dose: 200.0 mg/kg/injection, schedule: Q01DX009 (ip), vehicle: saline) 101 % of control.
`O=C1C=CC(O)C2OC12` (configuration not stated): the T/C by setting is: (dose: 5.0 mg/kg/injection, schedule: Q04DX002 (ip), vehicle: saline) 111 % of control; (dose: 10.0 mg/kg/injection, schedule: Q04DX002 (ip), vehicle: saline) 113 % of control.
For the compound `C=C(C)C(=O)OCCn1c(=O)c2c(ncn2C)n(C)c1=O`, the T/C by setting is: under setting [1], 96 % of control; under setting [2], 101 % of control; under setting [3], 92 % of control.
With `CN1CCC(=C(C#N)C(=O)O)CC1`, the T/C was 103 % of control under setting [10], 95 % of control under setting [11] and 103 % of control under setting [12].
Turning to `COC(=O)[C@@H]1c2cc3c(c(O)c2[C@@H](OC)C[C@@]1(C)O)C(=O)c1c(O)cc2c(c1C3=O)OC1O[C@@]2(C)[C@H](O)[C@@H](N(C)C)[C@@H]1O`, the T/C (dose: 6.25 mg/kg/injection, schedule: Q01DX010 (ip), vehicle: saline) was 110 % of control; the T/C (dose: 12.5 mg/kg/injection, schedule: Q01DX009 (ip), vehicle: other) is 171 % of control; the T/C under setting [7] was 156 % of control; the T/C (dose: 12.5 mg/kg/injection, schedule: Q01DX010 (ip), vehicle: saline) is 110 % of control; the T/C (dose: 25.0 mg/kg/injection, schedule: Q01DX009 (ip), vehicle: other) was 176 % of control; the T/C (dose: 25.0 mg/kg/injection, schedule: Q01DX009 (ip), vehicle: saline) was 159 % of control. For the same compound, the T/C runs as follows: (dose: 25.0 mg/kg/injection, schedule: Q01DX010 (ip), vehicle: saline) 120 % of control; (dose: 50.0 mg/kg/injection, schedule: Q01DX009 (ip), vehicle: other) 171 % of control; under setting [9], 98 % of control; (dose: 50.0 mg/kg/injection, schedule: Q01DX010 (ip), vehicle: saline) 110 % of control; (dose: 50.0 mg/kg/injection, schedule: Q04DX003 (ip), vehicle: other) 153 % of control; (dose: 50.0 mg/kg/injection, schedule: Q04DX003 (ip), vehicle: saline) 150 % of control. Besides, the T/C is 158 % of control (dose: 100.0 mg/kg/injection, schedule: Q04DX003 (ip), vehicle: other) and 150 % of control (dose: 100.0 mg/kg/injection, schedule: Q04DX003 (ip), vehicle: saline).
In the case of `O=C1C=CC(=O)N1c1ccc([N+](=O)[O-])cc1`, the T/C is 101 % of control (dose: 12.5 mg/kg/injection, schedule: Q01DX009 (ip), vehicle: saline with Tween-80); 101 % of control under setting [8]; 99 % of control under setting [5].
On to `O=c1[nH]c2c(ccc3cccnc32)c2c1CCC2`, for which the T/C is, setting by setting: (dose: 12.5 mg/kg/injection, schedule: Q04DX003 (ip), vehicle: saline with Tween-80) 98 % of control; (dose: 25.0 mg/kg/injection, schedule: Q04DX003 (ip), vehicle: saline with Tween-80) 95 % of control; (dose: 50.0 mg/kg/injection, schedule: Q04DX003 (ip), vehicle: saline with Tween-80) 98 % of control.
Consider `COc1cc2c(c(OC)c1OC)-c1ccc(OC)c(=O)cc1CC=C2`, for which the T/C (dose: 1.25 mg/kg/injection, schedule: Q01DX009 (ip), vehicle: Klucel (hydroxypropylcellulose) (HPC)) was 124 % of control; the T/C (dose: 2.5 mg/kg/injection, schedule: Q01DX009 (ip), vehicle: Klucel (hydroxypropylcellulose) (HPC)) was 119 % of control and 120 % of control; the T/C (dose: 5.0 mg/kg/injection, schedule: Q01DX009 (ip), vehicle: Klucel (hydroxypropylcellulose) (HPC)) is 100 % of control; the T/C (dose: 10.0 mg/kg/injection, schedule: Q01DX009 (ip), vehicle: Klucel (hydroxypropylcellulose) (HPC)) is 170 % of control.
Consider `CCC/C=c1/[nH]c(=O)/c(=C\c2ccc(OC)cc2)[nH]c1=O`, for which the T/C runs as follows: (dose: 25.0 mg/kg/injection, schedule: Q01DX009 (ip), vehicle: Klucel (hydroxypropylcellulose) (HPC)) 101 % of control; (dose: 50.0 mg/kg/injection, schedule: Q01DX009 (ip), vehicle: Klucel (hydroxypropylcellulose) (HPC)) 96 % of control; (dose: 100.0 mg/kg/injection, schedule: Q01DX009 (ip), vehicle: Klucel (hydroxypropylcellulose) (HPC)) 102 % of control.
With `CC(C)(C)OC(OC1(C)COC1=O)C1(C)CO1` (configuration not stated), the T/C was 87 % of control under setting [10]; 103 % of control (dose: 50.0 mg/kg/injection, schedule: Q01DX005 (ip), vehicle: water); 86 % of control under setting [11]; 105 % of control (dose: 100.0 mg/kg/injection, schedule: Q01DX005 (ip), vehicle: water); 97 % of control under setting [12]; 90 % of control (dose: 200.0 mg/kg/injection, schedule: Q01DX005 (ip), vehicle: water).
In the case of `CCn1c2ccccc2c2cc(NC(=O)NC(=O)c3ccccc3)ccc21`, the T/C runs as follows: (dose: 50.0 mg/kg/injection, schedule: Q01DX005 (ip), vehicle: saline with Tween-80) 90 % of control; (dose: 100.0 mg/kg/injection, schedule: Q01DX005 (ip), vehicle: saline with Tween-80) 90 % of control; (dose: 200.0 mg/kg/injection, schedule: Q01DX005 (ip), vehicle: saline with Tween-80) 87 % of control.
`CN(C)N1C(=O)SCC(c2ccccc2)(c2ccccc2)C1=O`: the T/C is, setting by setting: (dose: 60.0 mg/kg/injection, schedule: Q01DX005 (ip), vehicle: Klucel (hydroxypropylcellulose) (HPC)) 97 % of control; (dose: 120.0 mg/kg/injection, schedule: Q01DX005 (ip), vehicle: Klucel (hydroxypropylcellulose) (HPC)) 96 % of control; (dose: 240.0 mg/kg/injection, schedule: Q01DX005 (ip), vehicle: Klucel (hydroxypropylcellulose) (HPC)) 86 % of control.
